Assay results as given in US20230150951A1, “2,5- OR 2,6-DISUBSTITUTED HYDROQUINONE DERIVATIVES WITH AT LEAST ONE CARBOXY, SULFO OR AMIDO GROUP USEFUL AS MEDICAMENTS” (OM PHARMA SA, priority 2020, published 2023).

Experiments:
VEGFR-2 = biological target: T1, VEGFR-2 (Homo sapiens, UniProt P35968); experiment: VEGF-165 induced phosphorylation of VEGF-Receptor on HUVEC; assay type: cell-based; conditions: HUVEC preincubated 60 min, VEGF165 25 ng/mL 2 min; read-out: VEGFR-Phosphorylation inhibition IC50
T1 construct: endogenous in cells; host or cells: primary HUVEC

VEGF-A = biological target: T2, VEGF-A (Homo sapiens, UniProt P15692); experiment: VEGF-A induced sprouting of HUVEC, spheroid-based cellular angiogenesis assay; assay type: cell-based; conditions: VEGF-A 25 ng/mL preincubated with compound, 24 h, read-out: VEGF-A1 IC50
T2 construct: purchased ProQinase GmbH
T2 sequence (P15692 27-191 isoform P15692-4): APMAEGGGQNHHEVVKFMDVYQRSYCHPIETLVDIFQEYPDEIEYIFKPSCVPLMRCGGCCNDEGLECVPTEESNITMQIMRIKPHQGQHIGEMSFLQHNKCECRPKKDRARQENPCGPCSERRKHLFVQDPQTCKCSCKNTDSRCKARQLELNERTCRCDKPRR
Outline: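 Spheroids of 400 HUVEC (passage 3–4), embedded in collagen gel, were stimulated with FGF-1, FGF-2 or VEGF-A (final 25 ng/mL) preincubated 30 min at 37°C with compound (final 1.56–100 μM).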

[1] = test system: STZ-induced diabetes model; experiment: STZ-induced diabetic nephropathy, kidney disease and retinopathy model (28 days treatment); conditions: for Serum TNF-α / Retina vasculature coverage / Kidney collagen levels (Masson's Trichrome): 28 days; for Serum TNF-α: p<0.05; for Retina vasculature coverage: retinal flat mounts, FITC-dextran; for Kidney collagen levels (Masson's Trichrome) / Blood glucose levels on day 28 / Blood urea nitrogen levels: vs induced vehicle controls; for Blood glucose levels on day 28: IV; for Blood urea nitrogen levels / Mean day 28 blood glucose Concentration (mmol/L) (SD): day 28; for Blood BUN / Disease Score (kidney, H&E) / Eye area (retinal flatmount area covered by vasculature) / Trichrome staining (Kidney fibrosis) / Blood CRP / Blood IL-6 / Blood TGF-beta / Blood TNF-alpha / Urine albumine creatinine ratio (ALB:CRE): day 28 of treatment (week 9); for Blood BUN / Disease Score (kidney, H&E) / Eye area (retinal flatmount area covered by vasculature) / Trichrome staining (Kidney fibrosis) / Blood CRP / Blood IL-6 / Blood TGF-beta / Blood TNF-alpha / Mean day 0 blood glucose Concentration (mmol/L) (SD) / Mean day 28 blood glucose Concentration (mmol/L) (SD) / Urine albumine creatinine ratio (ALB:CRE): 15 mg/kg IV, Captopril 50 mg/kg PO; for Blood CRP / Blood IL-6 / Blood TGF-beta / Blood TNF-alpha: serum; for Urine ALB:CREA: treatment day 28; for Urine albumine creatinine ratio (ALB:CRE): urine pooled per group; for Serum CRP: 28 days of treatment, vs vehicle induced controls
Experimental: A total of 70 female CD-1 mice aged 5-7 weeks weighing approximately 25-30 g were used for the study. These were purchased from Charles River, UK and had 7 days acclimatization period. Animals were housed in IVC cages (up to 5 per cage) with individual mice identified by tail mark. All animals were allowed free access to a standard certified commercial diet and sanitised water during the study. The holding room was maintained under standard conditions: 18-24° C., 55-70% humidity and a 12 h light/dark cycle.
Mice were starved for 6 hours prior to injection. One week after completion of induction glucose levels were monitored and mice with levels less than 15 mml/L (280 mg/gL) were removed from the study as they had not developed the ideal severity of diabetes. Glucose levels were be monitored weekly and 5 weeks after STZ induction biochemical assessment of renal injury was carried out by measuring urine albumin and creatinine levels and confirming they were within the desired range. After successful completion of this stage animals were assigned to treatment groups.
Treatment continued for 4 weeks (28 days) with weekly measurement of blood glucose and urine albumin/creatinine. The study schedule is detailed below looking at weekly (week 5 to 9) blood glucose levels, urine albumin creatinie ratios, and terminal (week 9) blood chemistry and cytokines, kidney histology and eye-retinal leakage.
Urine Albumin: Creatinine (ALB: CRE): Urine was collected weekly and pooled for each treatment group.
ELISAs: At the end of the treatment period blood was collected and processed to serum. Serum levels of CRP, TGF-β, IL-6 and TNF-α were quantified using commercially available ELISA kits, results are shown in Table 56.

T1 sequence (P35968 20-1356): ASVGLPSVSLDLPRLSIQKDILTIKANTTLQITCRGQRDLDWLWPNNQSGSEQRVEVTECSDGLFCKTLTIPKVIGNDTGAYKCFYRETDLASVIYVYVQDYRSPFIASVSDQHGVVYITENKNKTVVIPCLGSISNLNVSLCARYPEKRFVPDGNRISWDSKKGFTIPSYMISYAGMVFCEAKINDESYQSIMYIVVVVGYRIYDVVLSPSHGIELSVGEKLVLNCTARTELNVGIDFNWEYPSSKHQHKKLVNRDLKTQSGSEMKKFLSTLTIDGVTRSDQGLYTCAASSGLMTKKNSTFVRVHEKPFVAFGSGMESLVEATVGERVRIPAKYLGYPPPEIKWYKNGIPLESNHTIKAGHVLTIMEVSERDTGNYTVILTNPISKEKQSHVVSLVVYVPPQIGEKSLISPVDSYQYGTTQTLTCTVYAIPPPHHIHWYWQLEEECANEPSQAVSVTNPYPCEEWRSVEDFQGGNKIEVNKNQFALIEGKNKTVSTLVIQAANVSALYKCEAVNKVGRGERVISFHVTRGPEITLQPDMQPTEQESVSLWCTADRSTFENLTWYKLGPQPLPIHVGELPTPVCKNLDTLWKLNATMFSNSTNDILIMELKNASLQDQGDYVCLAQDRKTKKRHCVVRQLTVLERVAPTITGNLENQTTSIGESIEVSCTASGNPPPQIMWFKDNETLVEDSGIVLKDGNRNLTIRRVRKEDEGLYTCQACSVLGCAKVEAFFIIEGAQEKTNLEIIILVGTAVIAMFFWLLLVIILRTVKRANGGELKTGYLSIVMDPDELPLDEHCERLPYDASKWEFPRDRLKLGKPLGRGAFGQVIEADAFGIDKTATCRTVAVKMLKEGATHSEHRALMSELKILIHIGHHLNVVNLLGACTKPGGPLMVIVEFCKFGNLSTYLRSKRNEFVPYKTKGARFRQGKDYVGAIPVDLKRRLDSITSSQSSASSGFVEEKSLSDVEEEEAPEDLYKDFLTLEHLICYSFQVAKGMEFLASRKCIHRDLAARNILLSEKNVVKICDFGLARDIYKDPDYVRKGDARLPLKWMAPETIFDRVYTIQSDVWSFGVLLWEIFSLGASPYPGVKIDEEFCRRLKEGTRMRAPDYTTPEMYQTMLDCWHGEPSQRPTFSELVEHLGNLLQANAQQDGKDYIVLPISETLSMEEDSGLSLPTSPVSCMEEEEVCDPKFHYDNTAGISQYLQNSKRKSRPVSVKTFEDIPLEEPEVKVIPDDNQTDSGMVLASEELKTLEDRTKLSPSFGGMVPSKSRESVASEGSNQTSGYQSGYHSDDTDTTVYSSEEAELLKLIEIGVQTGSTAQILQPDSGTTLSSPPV

IC50 (VEGFR-2) [µM] | IC50 (VEGF-A) [µM] | SMILES | Blood BUN [1] | Disease Score (kidney, H&E) [1] | Eye area (retinal flatmount area covered by vasculature) [1] | Trichrome staining (Kidney fibrosis) [1] | Blood CRP [1] | Blood IL-6 [1] | Blood TGF-beta [1] | Blood TNF-alpha [1] | also measured
1.3 | 43 | O=C(O)Cc1cc(O)c(C(=O)Nc2c(C(=O)O)cccc2C(=O)O)cc1O [IIIa-013a, 2-(4-(carboxymethyl)-2,5-dihydroxybenzamido)isophthalic acid] |  |  |  |  |  |  |  |  | 
0.2 | 38 | CC(=O)N(Cc1cc(O)c(C(=O)O)cc1O)Cc1cc(O)c(C(=O)O)cc1O [IIIc-057a, N,N-Bis(4-carboxy-2,5-dihydroxyphenylmethyl)acetamide] |  |  |  |  |  |  |  |  | 
4.3 | 21 | O=C(O)c1cc(O)c(CN(Cc2cc(O)c(C(=O)O)cc2O)Cc2cc(O)c(C(=O)O)cc2O)cc1O [IIIc-061a, Tris(4-carboxy-2,5-dihydroxyphenylmethyl)amine] | 22.5 ± 4.1 | 8 ± 1 | 9.1 ± 1.1 | 1.54 ± 0.55 | 5963 ± 849 | 117.59 ± 29.21 | 17.35 ± 2.09 | 324.6 ± 43.6 | Serum TNF-α [1]: significantly lower than vehicle induced controls; Retina vasculature coverage [1]: significantly decreased; Kidney collagen levels (Masson's Trichrome) [1]: significantly decreased; Blood glucose levels on day 28 [1]: reduction in blood glucose levels, however this did not reach statistical significance; Blood urea nitrogen levels [1]: significantly lower than induced vehicle controls; Urine ALB:CREA [1]: reduced
0.27 | 37 | O=C(O)c1ccccc1CNC(=O)c1cc(O)cc(C(=O)O)c1O [IIa-053a, 3-(2-Carboxyphenylmethylaminocarbonyl)-2,5-dihydroxybenzoic acid] |  |  |  |  |  |  |  |  | 
1.7 | 182 | O=C(O)c1cc(O)ccc1NC(=O)c1cc(O)cc(C(=O)Nc2ccc(O)cc2C(=O)O)c1O [IIc-009a, 2-(3-(2-carboxy-4-hydroxyphenylaminocarbonyl)-2,5-dihydroxybenzamido)-5-hydroxyl benzoic acid] |  |  |  |  |  |  |  |  | 
0.53 | 83 | O=C(O)c1cc(O)cc(CSCc2cc(O)cc(C(=O)O)c2O)c1O [IVc-058a, 3-((2,5-Dihydroxy-3-carboxyphenyl)methylthiomethyl)-2,5-dihydroxybenzoic acid] |  |  |  |  |  |  |  |  | 
4.8 | 12 | O=C(O)c1cc(O)cc(CS(=O)(=O)Cc2cc(O)cc(C(=O)O)c2O)c1O [IVc-059a, 3-((2,5-Dihydroxy-3-carboxyphenyl)methylsulfonylmethyl)-2,5-dihydroxybenzoic acid] | 22.5 ± 2.8 | 7 ± 1 | 8.7 ± 1.2 | 1.48 ± 0.73 | 5691 ± 1395 | 120.88 ± 23.05 | 13.47 ± 3.33 | 350.2 ± 41.4 | Retina vasculature coverage [1]: significantly decreased; Kidney collagen levels (Masson's Trichrome) [1]: significantly decreased; Blood glucose levels on day 28 [1]: significant reduction; Mean day 0 blood glucose Concentration (mmol/L) (SD) [1]: 24.3 (6.4) mmol/L; Mean day 28 blood glucose Concentration (mmol/L) (SD) [1]: 23.7 (6.6) mmol/L; Blood urea nitrogen levels [1]: significantly lower than induced vehicle controls; Urine albumine creatinine ratio (ALB:CRE) [1]: 18.85; Urine ALB:CREA [1]: reduced
2.25 | 7.3 | O=C(O)c1cc(O)c(C(=O)Nc2ccccc2C(=O)O)cc1O [Ia-001a, 4-(2-carboxyphenylaminocarbonyl)-2,5-dihydroxybenzoic acid] | 25.1 ± 3.1 | 7 ± 1 | 9.9 ± 1.9 | 1.87 ± 0.65 | 4759 ± 1181 | 114.16 ± 29.96 | 15.54 ± 2.8 | 342.3 ± 15.6 | Serum CRP [1]: significantly reduced; Serum TNF-α [1]: significantly lower than vehicle induced controls; Mean day 0 blood glucose Concentration (mmol/L) (SD) [1]: 25.7 (6.3) mmol/L; Mean day 28 blood glucose Concentration (mmol/L) (SD) [1]: 31.6 (3.8) mmol/L; Urine albumine creatinine ratio (ALB:CRE) [1]: 35.68
3.31 | ≥ 100 | O=C(O)c1cc(O)c(C(=O)Nc2ccccc2S(=O)(=O)O)cc1O [Ia-001c, 2,5-dihydroxy-4-(2-sulfophenylaminocarbonyl)benzoic acid] |  |  |  |  |  |  |  |  | 
0.15 | 19 | O=C(O)c1cc(NC(=O)c2cc(O)c(C(=O)O)cc2O)cc(C(=O)O)c1 [Ia-015a, 5-(4-carboxy-2,5-dihydroxybenzamido)isophthalic acid] |  |  |  |  |  |  |  |  | 
1.6 | 15 | O=C(O)c1cc(NC(=O)c2cc(O)c(C(=O)O)cc2O)cc(NC(=O)c2cc(O)c(C(=O)O)cc2O)c1 [Ib-010a, 3,5-bis(2,5-dihydroxy-4-carboxybenzoylamino)benzoic acid] | 20.5 ± 3.4 | 6 ± 1 | 11.8 ± 1 | 1.97 ± 0.8 | 5915 ± 1352 | 102.72 ± 25.4 | 13.17 ± 3.11 | 395.6 ± 46.7 | Mean day 0 blood glucose Concentration (mmol/L) (SD) [1]: 25.1 (6.1) mmol/L; Mean day 28 blood glucose Concentration (mmol/L) (SD) [1]: 31.1 (3.4) mmol/L; Blood urea nitrogen levels [1]: significantly lower than induced vehicle controls; Urine albumine creatinine ratio (ALB:CRE) [1]: 24.28; Urine ALB:CREA [1]: reduced

More lines, now with the values behind:

SMILES | IC50 (VEGFR-2) [µM] | IC50 (VEGF-A) [µM] | Blood BUN [1] | Disease Score (kidney, H&E) [1] | Eye area (retinal flatmount area covered by vasculature) [1] | Trichrome staining (Kidney fibrosis) [1] | Blood CRP [1] | Blood IL-6 [1] | Blood TGF-beta [1] | Blood TNF-alpha [1] | also measured
O=C(O)Cc1cc(O)c(C(=O)Nc2ccccc2-c2nnn[nH]2)cc1O [IIIa-001aTz] | 0.71 | 12 |  |  |  |  |  |  |  |  | 
O=C(O)c1cc(NC(=O)c2cc(O)cc(C(=O)Nc3ccc(O)c(C(=O)O)c3)c2O)ccc1O [IIc-007a, 5-(3-(3-carboxy-4-hydroxyphenylaminocarbonyl)-2,5-dihydroxybenzamido)-2-hydroxy benzoic acid] | 0.44 |  |  |  |  |  |  |  |  |  | 
COC(=O)c1cc(OC(C)=O)cc(CS(=O)(=O)Cc2cc(OC(C)=O)cc(C(=O)OC)c2OC(C)=O)c1OC(C)=O [IVc-059a-E2-A4] |  | 25 |  |  |  |  |  |  |  |  | 
O=C(O)c1cc(O)c(C(=O)Nc2ccccc2-c2nnn[nH]2)cc1O [Ia-001a-Tz, 4-(2-(1H-tetrazol-5-yl)phenyl-aminocarbonyl)-2,5-dihydroxybenzoic acid] | 0.23 | 17 | 25.3 ± 3.1 | 8 ± 3 | 11.8 ± 1 | 2.6 ± 0.98 | 5191 ± 993 | 112.35 ± 20.01 | 14.76 ± 2.95 | 327 ± 40.7 | Serum CRP [1]: significantly reduced; Serum TNF-α [1]: significantly lower than vehicle induced controls; Mean day 0 blood glucose Concentration (mmol/L) (SD) [1]: 24.9 (7.4) mmol/L; Mean day 28 blood glucose Concentration (mmol/L) (SD) [1]: 30.8 (6.2) mmol/L; Urine albumine creatinine ratio (ALB:CRE) [1]: 29.86
O=C(O)c1cc(O)c(C(=O)Nc2ccc(-c3nnn[nH]3)cc2)cc1O [Ia-003a-Tz, 4-(4-(1H-tetrazol-5-yl)phenyl-aminocarbonyl)-2,5-dihydroxybenzoic acid] | 6.4 | 13 |  |  |  |  |  |  |  |  | 
CCOC(=O)c1cc(NC(=O)c2cc(O)c(C(=O)OCC)cc2O)cc(NC(=O)c2cc(O)c(C(=O)OCC)cc2O)c1 [Ib-010a-E3, ethyl 3,5-bis(2,5-dihydroxy-4-ethoxycarbonylbenzoylamino)benzoate] | 0.09 |  |  |  |  |  |  |  |  |  | 
O=C(O)c1cc(NC(=O)c2cc(O)c(C(=O)Nc3ccccc3-c3nnn[nH]3)cc2O)ccc1O [Ic-001a-Tz/004a, 5-(4-(2-(1H-tetrazol-5-yl)phenylaminocarbonyl)-2,5-dihydroxybenzamido)-2-hydroxy benzoic acid] | 2.6 | 25 | 24.1 ± 4.1 | 9 ± 1 | 10.7 ± 2.1 | 2.48 ± 0.46 | 6077 ± 863 | 104.66 ± 22.89 | 15.48 ± 1.73 | 322.8 ± 40.1 | Mean day 0 blood glucose Concentration (mmol/L) (SD) [1]: 25.8 (5.7) mmol/L; Mean day 28 blood glucose Concentration (mmol/L) (SD) [1]: 29.6 (7.8) mmol/L; Urine albumine creatinine ratio (ALB:CRE) [1]: 35.10
O=C(Nc1ccccc1-c1nnn[nH]1)c1cc(O)c(C(=O)Nc2ccccc2-c2nnn[nH]2)cc1O [Ic-001aTz2, N1,N4-bis(2-(1H-tetrazol-5-yl)phenyl)-2,5-dihydroxyterephthalamide] | 2.2 | 45 |  |  |  |  |  |  |  |  | 
